{"source": "patent US20070270409A1", "about": "“Medicament for Preventing and/or Treating Ischemic Cardiovascular Disease” (Mitsubishi Pharma Corporation, priority 2004, published 2007)", "tested_on": "patients with anterior ST-segment elevation myocardial infarction undergoing PCI", "assay": "Clinical study of caldaret in patients undergoing PCI: SPECT measurements and cardiac serum markers", "assay_type": "in vivo", "conditions": "for Infarct size (% of the left ventricle): continuous intravenous 48 hours started about 30 minutes before PCI; for Infarct size (% of the left ventricle) / EDV (left ventricular end-diastolic volume) / ESV (left ventricular end-systolic volume) / LVEF (left ventricular ejection fraction): SPECT at day 7; for Infarct size (% of the left ventricle) / Serum marker CK / Serum marker TnT / EDV (left ventricular end-diastolic volume) / ESV (left ventricular end-systolic volume) / LVEF (left ventricular ejection fraction): TIMI flow grade 0 or 1; for Serum marker CK / Serum marker TnT / EDV (left ventricular end-diastolic volume) / ESV (left ventricular end-systolic volume) / LVEF (left ventricular ejection fraction): continuous intravenous 48 hours; for Serum marker CK: AUC of CK at days 0 to 3; for Serum marker TnT: AUC of TnT at days 0 to 5", "experimental": "Three hundred and eighty-seven patients with ΣST elevation of 10 mm or more undergoing PCI were divided into 3 groups: a caldaret non-administration group; a 61.5 mg caldaret administration group (57.5 mg in terms of 5-methyl-2-(1-piperazinyl)benzenesulfonic acid) (low-dose group); and a 184.6 mg caldaret administration group (172.5 mg in terms of 5-methyl-2-(1-piperazinyl)benzenesulfonic acid) (high-dose group). To these patients, administration of placebo (the caldaret non-administration group) or caldaret (the low-dose group and the high-dose group) was initiated about 30 minutes before PCI was performed. Placebo or caldaret was continuously administered intravenously for 48 hours. At day 7 after administration (the initiation day of adminstration=day 0 after administration, and hereinafter the same), the infarct size, the left ventricular end-systolic volume (ESV), the left ventricular end-diastolic volume (EDV) and the left ventricular ejection fraction (LVEF) were measured by SPECT and the cardiac serum markers were measured. Incidentally, as for the serum markers, AUC of TnT at days 0 to 5 after administration and AUC of CK at days 0 to 3 after administration were measured.\nHereinafter, the measurement results in 247 patients with TIMI flow grade 0 or 1 diagnosed with anterior ST-segment elevation myocardial infarction (88 patients in the low-dose group, 70 patients in the high-dose group and 89 patients in the caldaret non-administration group) are shown.", "key": {"[1]": {"conditions": "high-dose group, 184.6 mg caldaret"}, "[2]": {"conditions": "low-dose group, 61.5 mg caldaret"}}}
{"smiles": "Cc1ccc(N2CCNCC2)c(S(=O)(=O)O)c1.O", "note": "[caldaret, 5-methyl-2-(1-piperazinyl)benzenesulfonic acid monohydrate]", "values": [{"measurement": "All the measurement parameters compared with the non-administration group", "setting": "359 patients with anterior ST-segment elevation myocardial infarction regardless of the TIMI flow grade, low-dose and high-dose groups", "result": "improving tendency"}, {"measurement": "Infarct size (% of the left ventricle)", "setting": "[1]", "result": "25.7 (b) % of the left ventricle"}, {"measurement": "Serum marker CK", "setting": "[1]", "result": "1157 (*) IU/I"}, {"measurement": "Serum marker TnT", "setting": "[1]", "result": 4.3, "unit": "mg/L"}, {"measurement": "EDV (left ventricular end-diastolic volume)", "setting": "[1]", "result": 134.1, "unit": "mL"}, {"measurement": "ESV (left ventricular end-systolic volume)", "setting": "[1]", "result": 78.0, "unit": "mL"}, {"measurement": "LVEF (left ventricular ejection fraction)", "setting": "[1]", "result": "38.1 (*) %"}, {"measurement": "Infarct size (% of the left ventricle)", "setting": "[2]", "result": "24.4 (a) % of the left ventricle"}, {"measurement": "Serum marker CK", "setting": "[2]", "result": "1144 (*) IU/I"}, {"measurement": "Serum marker TnT", "setting": "[2]", "result": 5, "unit": "mg/L"}, {"measurement": "EDV (left ventricular end-diastolic volume)", "setting": "[2]", "result": 138.4, "unit": "mL"}, {"measurement": "ESV (left ventricular end-systolic volume)", "setting": "[2]", "result": 80.7, "unit": "mL"}, {"measurement": "LVEF (left ventricular ejection fraction)", "setting": "[2]", "result": 36.6, "unit": "%"}, {"measurement": "Effect on myocardial injury and myocardial function", "setting": "patient with anterior ST-segment elevation myocardial infarction undergoing percutaneous coronary intervention, overall conclusion", "result": "can alleviate myocardial injury and preserve myocardial function"}]}
